Results taken from PubChem BioAssay AID1963980 (Molecular Pharmacology Branch, DTP, NCI, 2024).
One block for each compound: values may come before it.

System: 475296-252-R-J1-PDC spheroid viability
Experiment: Anticancer human tumor 475296-252-R-J1-PDC patient-derived rectal carcinoma cell line growth inhibition [PI3K]
Settings: spheroids with HUVEC and MSC; for IC50: curve of first compound; for viability, T/C: stronger effect = lower value
Source text: Combinatorial screen of targeted agents with the PI3K inhibitors inavolisib, alpelisib, duvelisib, and copanlisib in multi-cell type tumor spheroids
A high-throughput screen of multi-cell type tumor spheroids was designed to identify active combinations of targeted small molecules and PI3K pathway inhibitors. Complex spheroids include a stromal component modeled by human endothelial cells (HUVEC) and fibroblasts modeled by human mesenchymal stem cells (MSCs). The concentration ranges selected for each drug and investigational agent were based upon clinically achievable concentrations if the clinical Cmax of the agent was known.
Compounds. The drugs and investigational agents: inavolisib (NSC800729), alpelisib (NSC765974), duvelisib (NSC772469), copanlisib (NSC816437), ipatasertib (NSC767898), afuresertib (NSC778305), talazoparib (NSC767125), sapanisertib (NSC764658), selumetinib (NSC741078), tovorafenib (DAY101, NSC766906), vemurafenib (NSC761431), ravoxertinib (NSC781343), sotorasib (NSC818433), MRTX1133 (NSC 836407), abemaciclib (NSC 768073), palbociclib (NSC758247), venetoclax (NSC 766270), SY5609 (NSC837396), enzalutamide (NSC755605), and darolutamide (NSC825331), were obtained from the National Cancer Institute (NCI) Developmental Therapeutics Program Chemical Repository. The FDA-approved anticancer drug set is available from the NCI Developmental Therapeutics Program. […] The stock solutions were prepared in dimethyl sulfoxide (DMSO, Sigma-Aldrich, St. Louis, MO, cat. D2650) at 800-fold the tested concentration and stored at -70 degrees C prior to their use. All drugs and investigational agents were tested over a range starting from a high concentration at or near the clinical Cmax and decreasing in half-log increments. If the clinical Cmax for an agent had not been determined, the highest concentration tested was 10 microM.
Cell Culture. All cells were maintained in an incubator at 37 degrees C and 5% CO2 with 95% humidity. The PDC lines were cultured according to standard operating procedures established by the NCI PDMR (https://pdmr.cancer.gov/sops/default.htm). All PDCs were thawed and cultured in Matrigel-coated flasks prepared with a working solution of 1X Ham's F-12 nutrient mix, without supplementation (Invitrogen, Waltham, MA, cat. 11765054), 100 U/mL penicillin-streptomycin (Invitrogen, cat. 15140122), and 2.5% Matrigel (Corning Inc., Corning, NY, cat. 354248) for the first three passages. The 354836-022-R-J1-PDC, 475296-252-R-J1-PDC, and 997726-040-R-J2-PDC lines were cultured in 6A media, which includes advanced DMEM/F-12 (Thermo Fisher Scientific, cat. 12634028), 10 mM HEPES (Thermo Fisher Scientific, cat. 15630080), 1X GlutaMAX supplement (Thermo Fisher Scientific, cat. 35050061), 0.1 mg/mL primocin (InvivoGen, San Diego, CA, cat. ant-pm-2), 10% defined fetal bovine serum, heat inactivated (HyClone Laboratories Inc., Logan, UT, cat. SH30070.03HI), 50% L-WRN conditioned media (ATCC, cat. CRL-3276), 1.25 mM N-Acetyl-L-cysteine (Sigma-Aldrich, cat. A9165), 10 mM nicotinamide (Sigma-Aldrich, cat. N0636), 1X B-27 supplement (Thermo Fisher Scientific, cat. 17504044), 1X N-2 supplement (Thermo Fisher Scientific, cat. 17502048), and 10 microM Y-27632 dihydrochloride (Tocris Bioscience, Bristol, United Kingdom, cat. 1254). The 624824-186-R-J2-PDC line was cultured in 6C/Colon 1B media, which includes all 6A media components plus 50 ng/mL human EGF recombinant protein (Thermo Fisher Scientific, cat. PHG0311). […]

[1] = second compound 0.00316 µM, first compound 0.0316 µM
[2] = second compound 0.00316 µM, first compound 0.1 µM
[3] = second compound 0.01 µM, first compound 0.0316 µM
[4] = second compound 0.01 µM, first compound 0.1 µM
[5] = second compound 0.0316 µM, first compound 0.0316 µM
[6] = second compound 0.0316 µM, first compound 0.1 µM
[7] = second compound 0.1 µM, first compound 0.0316 µM
[8] = second compound 0.1 µM, first compound 0.1 µM
[9] = second compound 0.316 µM, first compound 0.0316 µM
[10] = second compound 0.316 µM, first compound 0.1 µM
[11] = second compound 1 µM, first compound 0.0316 µM
[12] = second compound 1 µM, first compound 0.1 µM
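Note: spheroids exposed to agents for seven days before readout.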

IC50 (second compound 0.00316 µM): > 0.1 µM | IC50 (second compound 0.01 µM): > 0.1 µM | IC50 (second compound 0.0316 µM): > 0.1 µM | IC50 (second compound 0.1 µM): > 0.1 µM | IC50 (second compound 0.316 µM): > 0.1 µM | IC50 (second compound 1 µM): > 0.1 µM
SMILES: CC(=O)c1c(C)c2cnc(Nc3ccc(N4CCNCC4)cn3)nc2n(C2CCCC2)c1=O + CC(Nc1ccc2c(c1)OCCn1cc(N3C(=O)OCC3C(F)F)nc1-2)C(N)=O
viability, T/C (second compound 0.00316 µM, first compound 0.000316 µM): 93.5% | viability, T/C (second compound 0.00316 µM, first compound 0.001 µM): 86.6% | viability, T/C (second compound 0.00316 µM, first compound 0.00316 µM): 101% | viability, T/C (second compound 0.00316 µM, first compound 0.01 µM): 93.5% | viability, T/C [1]: 119% | viability, T/C [2]: 97.2% | viability, T/C (second compound 0.01 µM, first compound 0.000316 µM): 102% | viability, T/C (second compound 0.01 µM, first compound 0.001 µM): 91.3% | viability, T/C (second compound 0.01 µM, first compound 0.00316 µM): 94% | viability, T/C (second compound 0.01 µM, first compound 0.01 µM): 83.2% | viability, T/C [3]: 97% | viability, T/C [4]: 100% | viability, T/C (second compound 0.0316 µM, first compound 0.000316 µM): 97.5% | viability, T/C (second compound 0.0316 µM, first compound 0.001 µM): 101% | viability, T/C (second compound 0.0316 µM, first compound 0.00316 µM): 91.3% | viability, T/C (second compound 0.0316 µM, first compound 0.01 µM): 93.5% | viability, T/C [5]: 104% | viability, T/C [6]: 110% | viability, T/C (second compound 0.1 µM, first compound 0.000316 µM): 90.4% | viability, T/C (second compound 0.1 µM, first compound 0.001 µM): 91.8% | viability, T/C (second compound 0.1 µM, first compound 0.00316 µM): 100% | viability, T/C (second compound 0.1 µM, first compound 0.01 µM): 103% | viability, T/C [7]: 96.1% | viability, T/C [8]: 88.6% | viability, T/C (second compound 0.316 µM, first compound 0.000316 µM): 93.5% | viability, T/C (second compound 0.316 µM, first compound 0.001 µM): 96.2% | viability, T/C (second compound 0.316 µM, first compound 0.00316 µM): 83% | viability, T/C (second compound 0.316 µM, first compound 0.01 µM): 85.4% | viability, T/C [9]: 109% | viability, T/C [10]: 91.7% | viability, T/C (second compound 1 µM, first compound 0.000316 µM): 85.4% | viability, T/C (second compound 1 µM, first compound 0.001 µM): 90.1% | viability, T/C (second compound 1 µM, first compound 0.00316 µM): 87.2% | viability, T/C (second compound 1 µM, first compound 0.01 µM): 91.2% | viability, T/C [11]: 93.2% | viability, T/C [12]: 100%

IC50 (second compound 0.00316 µM): > 10 µM | IC50 (second compound 0.01 µM): > 10 µM | IC50 (second compound 0.0316 µM): > 10 µM | IC50 (second compound 0.1 µM): > 10 µM | IC50 (second compound 0.316 µM): > 10 µM | IC50 (second compound 1 µM): > 10 µM
SMILES: CNC(=O)c1ccc(N2C(=S)N(c3ccc(C#N)c(C(F)(F)F)c3)C(=O)C2(C)C)cc1F + CC(Nc1ccc2c(c1)OCCn1cc(N3C(=O)OCC3C(F)F)nc1-2)C(N)=O
viability, T/C [1]: 98.4% | viability, T/C [2]: 85% | viability, T/C (second compound 0.00316 µM, first compound 0.316 µM): 102% | viability, T/C (second compound 0.00316 µM, first compound 1 µM): 84.3% | viability, T/C (second compound 0.00316 µM, first compound 3.16 µM): 100% | viability, T/C (second compound 0.00316 µM, first compound 10 µM): 104% | viability, T/C [3]: 95.4% | viability, T/C [4]: 90.4% | viability, T/C (second compound 0.01 µM, first compound 0.316 µM): 102% | viability, T/C (second compound 0.01 µM, first compound 1 µM): 93% | viability, T/C (second compound 0.01 µM, first compound 3.16 µM): 99.3% | viability, T/C (second compound 0.01 µM, first compound 10 µM): 85.1% | viability, T/C [5]: 94.6% | viability, T/C [6]: 87.7% | viability, T/C (second compound 0.0316 µM, first compound 0.316 µM): 94.2% | viability, T/C (second compound 0.0316 µM, first compound 1 µM): 99.9% | viability, T/C (second compound 0.0316 µM, first compound 3.16 µM): 96.9% | viability, T/C (second compound 0.0316 µM, first compound 10 µM): 103% | viability, T/C [7]: 87.1% | viability, T/C [8]: 93.6% | viability, T/C (second compound 0.1 µM, first compound 0.316 µM): 90% | viability, T/C (second compound 0.1 µM, first compound 1 µM): 100% | viability, T/C (second compound 0.1 µM, first compound 3.16 µM): 97.5% | viability, T/C (second compound 0.1 µM, first compound 10 µM): 91.3% | viability, T/C [9]: 87.7% | viability, T/C [10]: 93.8% | viability, T/C (second compound 0.316 µM, first compound 0.316 µM): 84.9% | viability, T/C (second compound 0.316 µM, first compound 1 µM): 94.3% | viability, T/C (second compound 0.316 µM, first compound 3.16 µM): 92.5% | viability, T/C (second compound 0.316 µM, first compound 10 µM): 90.9% | viability, T/C [11]: 98.1% | viability, T/C [12]: 89% | viability, T/C (second compound 1 µM, first compound 0.316 µM): 91.3% | viability, T/C (second compound 1 µM, first compound 1 µM): 84% | viability, T/C (second compound 1 µM, first compound 3.16 µM): 94.3% | viability, T/C (second compound 1 µM, first compound 10 µM): 80.8%
